Source: patent US20220315554A1, “COMPOUNDS COMPRISING A […] LIGAND AND USE THEREOF” (priority 2019, published 2022)
Numbered stars: 1 amine (or outer) side, 2 acyl side, 3 side chain; on linkers, the order of the positions; unused ones are H or OH. Bridge positions count the residues as written; N and C are the ends. Square brackets hold non-standard residues; d marks the D form. Peptide text beside a SMILES is read from it. * marks the point of attachment. NH(CH2)3NH(O2Oc(DOTA)) = O=C(O)CN1CCN(CC(=O)O)CCN(CC(=O)NCCOCCOCC(=O)NCCCN*)CCN(CC(=O)O)CC1; NH(CH2)3NHDOTA = O=C(O)CN1CCN(CC(=O)O)CCN(CC(=O)NCCCN*)CCN(CC(=O)O)CC1; Pyridine(2,6-diCH2) = c1cc(C[*:1])nc(C[*:2])c1; Phe(2-CF3) = N[C@@H](Cc1ccccc1C(F)(F)F)C(=O)O; Pyridine(3,5-bisCH2) = c1ncc(C[*:2])cc1C[*:1]; mXylylene = c1cc(C[*:1])cc(C[*:2])c1; Octanoyl = CCCCCCCC(=O)*; Hexanoyl = CCCCCC(=O)*; CO = O=C([*:1])[*:2]; NHPentyl = CCCCCN*

How the values were obtained:
[1] = target: T1, Human recombinant FAP (Homo sapiens, UniProt Q12884); assay: FRET-based FAP protease activity assay; type: biochemical; set-up: purchased R&D systems 3715-SE; conditions: pIC50 Category (Activity), recombinant human FAP, FRET substrate, 37° C.
T1 sequence (Q12884 1-760): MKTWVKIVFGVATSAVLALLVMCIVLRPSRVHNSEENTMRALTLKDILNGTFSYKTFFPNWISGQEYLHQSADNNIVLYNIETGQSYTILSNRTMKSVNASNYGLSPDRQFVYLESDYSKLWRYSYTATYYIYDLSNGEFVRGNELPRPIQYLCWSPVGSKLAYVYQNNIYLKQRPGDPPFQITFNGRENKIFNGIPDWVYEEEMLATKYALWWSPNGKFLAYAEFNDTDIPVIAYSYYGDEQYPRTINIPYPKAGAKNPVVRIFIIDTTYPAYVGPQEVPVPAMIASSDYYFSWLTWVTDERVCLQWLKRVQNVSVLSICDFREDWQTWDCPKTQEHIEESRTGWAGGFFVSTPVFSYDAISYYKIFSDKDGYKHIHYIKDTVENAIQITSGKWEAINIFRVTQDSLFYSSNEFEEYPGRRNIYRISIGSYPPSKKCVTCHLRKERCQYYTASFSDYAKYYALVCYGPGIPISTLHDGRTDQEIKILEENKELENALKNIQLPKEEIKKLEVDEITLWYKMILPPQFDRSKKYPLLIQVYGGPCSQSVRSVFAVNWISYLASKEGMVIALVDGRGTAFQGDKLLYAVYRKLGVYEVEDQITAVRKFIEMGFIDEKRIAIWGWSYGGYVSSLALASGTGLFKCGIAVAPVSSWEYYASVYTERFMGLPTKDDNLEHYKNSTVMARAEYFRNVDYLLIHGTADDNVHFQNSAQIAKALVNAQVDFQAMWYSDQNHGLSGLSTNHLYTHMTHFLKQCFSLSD

[2] = target: T2, FAP-expressing human WI-38 fibroblasts (Homo sapiens, UniProt Q12884); assay: Competitive FACS binding assay; conditions: pIC50 Category (FACS), competition with 3 nM Cy5-labeled compound, WI-38 fibroblasts, 4° C., 1 hour
T2 construct: FAP-expressing human WI-38 fibroblasts (ECACC) were cultured in EMEM; host or cells: WI-38 human fibroblasts
T2 sequence (Q12884 1-760): T1 sequence (Q12884 1-760)
Experimental: Cells were analyzed in an Attune NxT flow cytometer. […]

Row | SMILES | IC50 [1] | IC50 [2]
1 | CCCCCC(=O)N[C@H]1CSCc2cccc(c2)CSC[C@@H](C(=O)N[C@@H](CC(=O)O)C(N)=O)NC(=O)[C@H](Cc2ccccc2C(F)(F)F)NC(=O)[C@H](CCC(N)=O)NC(=O)[C@H]([C@@H](C)O)NC(=O)[C@@H]2CCCN2C(=O)[C@@H]2CCCN2C1=O [3BP-3409, Hex-[Cys(3MeBn)-Pro-Pro-Thr-Gln-Otf-Cys]-NH2] (Hexanoyl-CPPTQ[Phe(2-CF3)]CD-NH2; linker 1-7 via mXylylene) | < 10 nM | 10 to 79.4 nM
2 | CCCCCCCC(=O)N[C@H]1CSCc2cccc(c2)CSC[C@@H](C(=O)N[C@@H](CC(=O)O)C(N)=O)NC(=O)[C@H](Cc2ccccc2)NC(=O)[C@H](CCC(N)=O)NC(=O)[C@H]([C@@H](C)O)NC(=O)[C@@H]2CCCN2C(=O)[C@@H]2CCCN2C1=O [3BP-3417, Oct-[Cys(3MeBn)-Pro-Pro-Thr-Gln-Phe-Cys]-Asp-NH2] (Octanoyl-CPPTQFCD-NH2; linker 1-7 via mXylylene) | 10 to 79.4 nM | 10 to 79.4 nM
3 | CCCCCNC(=O)N[C@H]1CSCc2cccc(c2)CSC[C@@H](C(=O)N[C@@H](CC(=O)O)C(N)=O)NC(=O)[C@H](Cc2ccccc2)NC(=O)[C@H](CCC(N)=O)NC(=O)[C@H]([C@@H](C)O)NC(=O)[C@@H]2CCCN2C(=O)[C@@H]2CCCN2C1=O [3BP-3425, PentylNH-urea-[Cys(3MeBn)-Pro-Pro-Thr-Gln-Phe-Cys]-Asp-NH2] ({NHPentyl-CO}-CPPTQFCD-NH2; linker 1-7 via mXylylene) | < 10 nM | 10 to 79.4 nM
4 | CCCCCC(=O)N[C@H]1CSCc2cccc(c2)CSC[C@@H](C(=O)N[C@@H](CC(=O)O)C(N)=O)NC(=O)[C@H](Cc2ccccc2)NC(=O)[C@H](CCC(=O)NCCCNC(=O)CN2CCN(CC(=O)O)CCN(CC(=O)O)CCN(CC(=O)O)CC2)NC(=O)[C@H]([C@@H](C)O)NC(=O)[C@@H]2CCCN2C(=O)[C@@H]2CCCN2C1=O [3BP-3472, Hex-[Cys(3MeBn)-Pro-Pro-Thr-Glu(NH-Apr-DOTA')-Phe-Cys]-Asp-NH2] (Hexanoyl-CPPTE(NH(CH2)3NHDOTA)FCD-NH2; linker 1-7 via mXylylene) | > 1000 nM | > 1000 nM
5 | CCCCCC(=O)N[C@H]1CSCc2cccc(c2)CSC[C@@H](C(=O)N[C@@H](CC(=O)O)C(N)=O)NC(=O)[C@H](Cc2ccccc2)NC(=O)[C@H](CCC(=O)NCCCNC(=O)COCCOCCNC(=O)CN2CCN(CC(=O)O)CCN(CC(=O)O)CCN(CC(=O)O)CC2)NC(=O)[C@H]([C@@H](C)O)NC(=O)[C@@H]2CCCN2C(=O)[C@@H]2CCCN2C1=O [3BP-3473, Hex-[Cys(3MeBn)-Pro-Pro-Thr-Glu(NH-Apr-O2O-DOTA')-Phe-Cys]-Asp-NH2] (Hexanoyl-CPPTE(NH(CH2)3NH(O2Oc(DOTA)))FCD-NH2; linker 1-7 via mXylylene) | 100 to 794 nM | 100 to 794 nM
6 | CCCCCC(=O)N[C@H]1CSCc2cccc(n2)CSC[C@@H](C(=O)N[C@@H](CC(=O)O)C(N)=O)NC(=O)[C@H](Cc2ccccc2)NC(=O)[C@H](CCC(N)=O)NC(=O)[C@H]([C@@H](C)O)NC(=O)[C@@H]2CCCN2C(=O)[C@@H]2CCCN2C1=O [3BP-3518, Hex-[Cys(2Lut)-Pro-Pro-Thr-Gln-Phe-Cys]-Asp-NH2] (Hexanoyl-CPPTQFCD-NH2; linker 1-7 via Pyridine(2,6-diCH2)) | < 10 nM | < 10 nM
7 | CCCCCC(=O)N[C@H]1CSCc2cncc(c2)CSC[C@@H](C(=O)N[C@@H](CC(=O)O)C(N)=O)NC(=O)[C@H](Cc2ccccc2)NC(=O)[C@H](CCC(N)=O)NC(=O)[C@H]([C@@H](C)O)NC(=O)[C@@H]2CCCN2C(=O)[C@@H]2CCCN2C1=O [3BP-3519, Hex-[Cys(3Lut)-Pro-Pro-Thr-Gln-Phe-Cys]-Asp-NH2] (Hexanoyl-CPPTQFCD-NH2; linker 1-7 via Pyridine(3,5-bisCH2)) | < 10 nM | < 10 nM
